Assay results from patent publication US12252524B2, “GIP/GLP1 co-agonist compounds” (Eli Lilly and Company, priority 2018, dated 2025).
Numbered stars: 1 amine (or outer) side, 2 acyl side, 3 side chain; on linkers, the order of the positions; unused ones are H or OH. Square brackets hold non-standard residues; d marks the D form. Side chains are listed from the residue outwards. Peptide text beside a SMILES is read from it. * marks the point of attachment. C20 diacid = O=C(O)CCCCCCCCCCCCCCCCCCC(=O)*; C18 diacid = O=C(O)CCCCCCCCCCCCCCCCC(=O)*; γGlu = O=C(O)[C@H](CCC(=O)[*:2])N[*:1]; αMeF = C[C@](N)(Cc1ccccc1)C(=O)O; αMeL = CC(C)C[C@](C)(N)C(=O)O; AEEA = NCCOCCOCC(=O)O; Aib = CC(C)(N)C(=O)O

What was measured:
human GLP-1R = human GLP-1R (Homo sapiens, UniProt P43220); test: [125I]-GLP-1 binding (SPA), human GLP-1 receptor; design: expressed in transfected cells; crude membranes; conditions: read-out: hGLP1R Ki, (nM) (SEM, n)
Chain of human GLP-1R (P43220 24-463): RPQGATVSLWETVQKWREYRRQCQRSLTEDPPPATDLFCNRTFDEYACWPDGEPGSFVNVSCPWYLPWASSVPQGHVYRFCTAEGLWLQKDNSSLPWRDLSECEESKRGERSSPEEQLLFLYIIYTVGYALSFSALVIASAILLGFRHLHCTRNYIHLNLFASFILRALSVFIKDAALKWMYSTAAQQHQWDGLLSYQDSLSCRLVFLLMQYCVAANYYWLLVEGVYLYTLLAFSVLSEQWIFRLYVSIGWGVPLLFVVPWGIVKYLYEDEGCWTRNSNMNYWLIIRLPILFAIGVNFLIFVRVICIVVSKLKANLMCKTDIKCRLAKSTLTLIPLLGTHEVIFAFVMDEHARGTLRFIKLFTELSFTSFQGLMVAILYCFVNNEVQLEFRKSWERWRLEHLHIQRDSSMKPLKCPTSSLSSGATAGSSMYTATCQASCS
How it was run: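 Membranes: hypotonic lysis (50 mM Tris HCl, pH 7.5, protease inhibitors), Potter-Elvehjem homogenization, high-speed pellet (35000×g 1 h or 25000×g 30 min, 4° C.). Buffer: 25 mM HEPES pH 7.4, 2.5 mM CaCl2, 1 mM MgCl2. Four-parameter IC50 fit; Ki as geometric mean ± SEM.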

human GIP receptor = target: T1, human GIP receptor (Homo sapiens, UniProt P48546); test: [125I]-GIP binding (SPA), human GIP receptor; conditions: read-out: hGIPR Ki, nM (SEM, n)
T1 construct: expressed in transfected cells; crude membranes
T1 sequence (P48546 22-466): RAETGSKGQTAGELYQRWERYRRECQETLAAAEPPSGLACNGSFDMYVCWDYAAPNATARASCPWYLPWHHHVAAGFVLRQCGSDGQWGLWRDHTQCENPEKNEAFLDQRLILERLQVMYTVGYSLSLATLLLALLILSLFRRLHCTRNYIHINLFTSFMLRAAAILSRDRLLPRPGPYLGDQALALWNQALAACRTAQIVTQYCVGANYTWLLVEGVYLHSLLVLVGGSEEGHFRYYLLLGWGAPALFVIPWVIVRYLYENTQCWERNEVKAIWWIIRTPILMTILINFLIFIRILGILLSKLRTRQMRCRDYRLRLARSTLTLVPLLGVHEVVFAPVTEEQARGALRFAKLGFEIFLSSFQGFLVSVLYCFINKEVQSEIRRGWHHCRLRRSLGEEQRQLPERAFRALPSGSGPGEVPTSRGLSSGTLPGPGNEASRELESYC

[1] = target: human GLP-1 receptor (GLP-1R) (Homo sapiens, UniProt P43220); test: cAMP pharmacological functional assay in presence of casein, hGLP-1R; type: cell-based; conditions: HEK293 cells expressing hGLP-1R, 0.1% Casein, geometric mean; read-out: hGLP1R cAMP Rel EC50 nM (SEM, n)
Chain of human GLP-1 receptor (GLP-1R) (P43220 24-463): as the sequence (P43220 24-463) above

human Gcg receptor = target: T2, human Gcg receptor (Homo sapiens, UniProt P47871); test: [125I]-Glucagon binding (SPA), human Gcg receptor; conditions: read-out: hGLcgR Ki, nM (SEM, n)
T2 construct: expressed in transfected cells; crude membranes
T2 sequence (P47871 26-477): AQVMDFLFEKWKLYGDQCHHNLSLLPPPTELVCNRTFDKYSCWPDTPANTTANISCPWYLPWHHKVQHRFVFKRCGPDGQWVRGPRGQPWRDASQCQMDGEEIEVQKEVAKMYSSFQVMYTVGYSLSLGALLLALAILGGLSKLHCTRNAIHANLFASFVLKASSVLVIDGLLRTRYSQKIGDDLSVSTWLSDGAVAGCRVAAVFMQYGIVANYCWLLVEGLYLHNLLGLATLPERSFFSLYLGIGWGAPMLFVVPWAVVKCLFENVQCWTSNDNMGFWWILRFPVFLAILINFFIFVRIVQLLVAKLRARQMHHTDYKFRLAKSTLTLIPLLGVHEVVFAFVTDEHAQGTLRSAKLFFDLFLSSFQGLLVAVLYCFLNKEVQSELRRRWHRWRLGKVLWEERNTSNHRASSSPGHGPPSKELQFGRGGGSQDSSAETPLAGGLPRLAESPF
How it was run: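 Cell pellets were lysed in hypotonic Tris buffer, pH 7.5, homogenized, and spun at low then high speed to give crude membranes. Ki was derived from the fitted IC50.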

[2] = target: T3, gastric inhibitory peptide receptor (GIPR) (Homo sapiens, UniProt P48546); test: cAMP pharmacological functional assay in presence of casein, hGIPR; type: cell-based; conditions: HEK293 cells expressing hGIPR, 0.1% Casein, geometric mean; read-out: hGIPR cAMP Rel EC50 nM (SEM, n)
T3 sequence (P48546 22-466): T1 sequence (P48546 22-466)

| SMILES | Ki (human GLP-1R) [nM] | Ki (human GIP receptor) [nM] | EC50 [1] [nM] | Ki (human Gcg receptor) [nM] | EC50 [2] [nM] |
| --- | --- | --- | --- | --- | --- |
| CC[C@H](C)[C@H](NC(=O)[C@H](CC(C)C)NC(=O)[C@H](Cc1ccc(O)cc1)NC(=O)[C@H](CCC(=O)O)NC(=O)[C@@H](NC(=O)[C@H](Cc1ccccc1)NC(=O)[C@H](C)NC(=O)C(C)(C)NC(=O)[C@H](CCC(N)=O)NC(=O)[C@H](C)NC(=O)[C@H](CCCCNC(=O)COCCOCCNC(=O)COCCOCCNC(=O)CC[C@H](NC(=O)CCCCCCCCCCCCCCCCCCC(=O)O)C(=O)O)NC(=O)[C@H](CCCCN)NC(=O)[C@H](CC(=O)O)NC(=O)[C@H](CC(C)C)NC(=O)[C@](C)(CC(C)C)NC(=O)[C@@H](NC(=O)[C@H](CO)NC(=O)[C@H](Cc1ccc(O)cc1)NC(=O)[C@H](CC(=O)O)NC(=O)[C@H](CO)NC(=O)[C@@H](NC(=O)[C@](C)(Cc1ccccc1)NC(=O)[C@@H](NC(=O)CNC(=O)[C@H](CCC(=O)O)NC(=O)C(C)(C)NC(=O)[C@@H](N)Cc1ccc(O)cc1)[C@@H](C)O)[C@@H](C)O)[C@@H](C)CC)[C@@H](C)CC)C(=O)N[C@@H](CCC(=O)O)C(=O)N[C@@H](C)C(=O)NCC(=O)N1CCC[C@H]1C(=O)N[C@@H](CO)C(=O)N[C@@H](CO)C(=O)NCC(=O)N[C@@H](C)C(=O)N1CCC[C@H]1C(=O)N1CCC[C@H]1C(=O)N1CCC[C@H]1C(=O)N[C@@H](CO)C(N)=O [Example 126] (H-Y[Aib]EGT[αMeF]TSDYSI[αMeL]LDKK([AEEA-AEEA-γGlu-C20 diacid])AQ[Aib]AFIEYLIEAGPSSGAPPPS-NH2; N-terminus assumed) | 1.46 | 0.0644 | 0.0715 | 101 | 0.0685 |
| CC[C@H](C)[C@H](NC(=O)[C@H](CC(C)C)NC(=O)[C@H](Cc1ccc(O)cc1)NC(=O)[C@H](CCC(=O)O)NC(=O)[C@@H](NC(=O)[C@H](Cc1ccccc1)NC(=O)[C@H](C)NC(=O)C(C)(C)NC(=O)[C@H](CCC(N)=O)NC(=O)[C@H](C)NC(=O)[C@H](CCCCNC(=O)COCCOCCNC(=O)COCCOCCNC(=O)CC[C@H](NC(=O)CCCCCCCCCCCCCCCCCCC(=O)O)C(=O)O)NC(=O)[C@H](CCCCN)NC(=O)[C@H](CC(=O)O)NC(=O)[C@H](CC(C)C)NC(=O)[C@H](CC(C)C)NC(=O)[C@@H](NC(=O)[C@H](CO)NC(=O)[C@H](CCC(=O)O)NC(=O)[C@H](CC(=O)O)NC(=O)[C@H](CO)NC(=O)[C@@H](NC(=O)[C@](C)(Cc1ccccc1)NC(=O)[C@@H](NC(=O)CNC(=O)[C@H](CCC(=O)O)NC(=O)C(C)(C)NC(=O)[C@@H](N)Cc1ccc(O)cc1)[C@@H](C)O)[C@@H](C)O)[C@@H](C)CC)[C@@H](C)CC)C(=O)N[C@@H](CCC(=O)O)C(=O)NCC(=O)NCC(=O)N1CCC[C@H]1C(=O)N[C@@H](CO)C(=O)N[C@@H](CO)C(=O)NCC(=O)N[C@@H](C)C(=O)N1CCC[C@H]1C(=O)N1CCC[C@H]1C(=O)N1CCC[C@H]1C(=O)N[C@@H](CO)C(N)=O [Example 130] (H-Y[Aib]EGT[αMeF]TSDESILLDKK([AEEA-AEEA-γGlu-C20 diacid])AQ[Aib]AFIEYLIEGGPSSGAPPPS-NH2; N-terminus assumed) | 3.66 | 0.177 | 0.368 | > 1060 | 1.55 |
| CC[C@H](C)[C@H](NC(=O)[C@H](CC(C)C)NC(=O)[C@H](Cc1ccc(O)cc1)NC(=O)[C@@H](CCC(=O)O)NC(=O)[C@@H](NC(=O)[C@H](Cc1ccccc1)NC(=O)[C@H](CCC(=O)O)NC(=O)C(C)(C)NC(=O)[C@H](CCC(N)=O)NC(=O)[C@H](C)NC(=O)[C@H](CCCCNC(=O)COCCOCCNC(=O)COCCOCCNC(=O)CC[C@H](NC(=O)CCCCCCCCCCCCCCCCCCC(=O)O)C(=O)O)NC(=O)[C@H](CCC(=O)O)NC(=O)[C@H](CC(=O)O)NC(=O)[C@H](CC(C)C)NC(=O)[C@](C)(CC(C)C)NC(=O)[C@@H](NC(=O)[C@H](CO)NC(=O)[C@H](Cc1ccc(O)cc1)NC(=O)[C@H](CC(=O)O)NC(=O)[C@H](CO)NC(=O)[C@@H](NC(=O)[C@](C)(Cc1ccccc1)NC(=O)[C@@H](NC(=O)CNC(=O)[C@H](CCC(=O)O)NC(=O)C(C)(C)NC(=O)[C@@H](N)Cc1ccc(O)cc1)[C@@H](C)O)[C@@H](C)O)[C@@H](C)CC)[C@@H](C)CC)C(=O)N[C@@H](CCC(=O)O)C(=O)NCC(=O)NCC(=O)N1CCC[C@H]1C(=O)N[C@@H](CO)C(=O)N[C@@H](CO)C(=O)NCC(=O)N[C@@H](C)C(=O)N1CCC[C@H]1C(=O)N1CCC[C@H]1C(=O)N1CCC[C@H]1C(=O)N[C@@H](CO)C(N)=O [Example 227] (H-Y[Aib]EGT[αMeF]TSDYSI[αMeL]LDEK([AEEA-AEEA-γGlu-C20 diacid])AQ[Aib]EFI[dE]YLIEGGPSSGAPPPS-NH2) | 2.01 | 0.0146 | 0.0329 | 113 | 0.0414 |
| CC[C@H](C)[C@H](NC(=O)[C@H](CC(C)C)NC(=O)[C@H](Cc1ccc(O)cc1)NC(=O)[C@@H](CCC(=O)O)NC(=O)[C@@H](NC(=O)[C@H](Cc1ccccc1)NC(=O)[C@H](CCC(=O)O)NC(=O)C(C)(C)NC(=O)[C@H](CCC(N)=O)NC(=O)[C@H](C)NC(=O)[C@H](CCCCNC(=O)COCCOCCNC(=O)COCCOCCNC(=O)CC[C@H](NC(=O)CCCCCCCCCCCCCCCCC(=O)O)C(=O)O)NC(=O)[C@H](CCCN)NC(=O)[C@H](CC(=O)O)NC(=O)[C@H](CC(C)C)NC(=O)C(C)(C)NC(=O)[C@@H](NC(=O)[C@H](CO)NC(=O)[C@H](Cc1ccc(O)cc1)NC(=O)[C@H](CC(=O)O)NC(=O)[C@H](CO)NC(=O)[C@@H](NC(=O)C(C)(Cc1ccccc1F)NC(=O)[C@@H](NC(=O)CNC(=O)[C@H](CCC(=O)O)NC(=O)C(C)(C)NC(=O)[C@@H](N)Cc1ccc(O)cc1)[C@@H](C)O)[C@@H](C)O)[C@@H](C)CC)[C@@H](C)CC)C(=O)N[C@@H](CCC(=O)O)C(=O)NCC(=O)NCC(=O)N1CCC[C@H]1C(=O)N[C@@H](CO)C(=O)N[C@@H](CO)C(=O)NCC(=O)N[C@@H](C)C(=O)N1CCC[C@H]1C(=O)N1CCC[C@H]1C(=O)N1CCC[C@H]1C(=O)N[C@@H](CO)C(N)=O (stereo partly shown) [Example 247] | 4.39 | > 55.1 | 0.0491 | > 1100 | 0.0622 |
| CC[C@H](C)[C@H](NC(=O)[C@H](CC(C)C)NC(=O)[C@H](Cc1ccc(O)cc1)NC(=O)[C@H](CCC(=O)O)NC(=O)[C@@H](NC(=O)[C@H](Cc1ccccc1)NC(=O)[C@H](C)NC(=O)[C@H](Cc1c[nH]cn1)NC(=O)[C@H](CCC(N)=O)NC(=O)[C@H](C)NC(=O)[C@H](CCCCNC(=O)COCCOCCNC(=O)COCCOCCNC(=O)CC[C@H](NC(=O)CCCCCCCCCCCCCCCCC(=O)O)C(=O)O)NC(=O)[C@H](CCCCN)NC(=O)[C@H](CC(=O)O)NC(=O)[C@H](CC(C)C)NC(=O)[C@H](CC(C)C)NC(=O)[C@@H](NC(=O)[C@H](CO)NC(=O)[C@H](Cc1ccc(O)cc1)NC(=O)[C@H](CC(=O)O)NC(=O)[C@H](CO)NC(=O)[C@@H](NC(=O)[C@H](Cc1ccccc1)NC(=O)[C@@H](NC(=O)CNC(=O)[C@H](CCC(=O)O)NC(=O)C(C)(C)NC(=O)[C@@H](N)Cc1ccc(O)cc1)[C@@H](C)O)[C@@H](C)O)[C@@H](C)CC)[C@@H](C)CC)C(=O)N[C@@H](CCC(=O)O)C(=O)NCC(=O)NCC(N)=O [Example 295] (H-Y[Aib]EGTFTSDYSILLDKK([AEEA-AEEA-γGlu-C18 diacid])AQHAFIEYLIEGG-NH2) | 4.12 | 0.181 | 0.116 | > 1000 | 0.281 |
